# Patent US20180325914A1, “INCREASING STORAGE OF VITAMIN A, VITAMIN D AND/OR LIPIDS” (Salk Institute for Biological Studies, priority 2014, published 2018)
# Test system: primary HSCs
# Settings: Day_6_JQ1
smiles,measurement,value
"Cc1sc2c(c1C)C(c1ccc(Cl)cc1)=N[C@@H](CC(=O)OC(C)(C)C)c1nnc(C)n1-2 [JQ1, (S)-tert-butyl 2-(4-(4-chlorophenyl)-2,3,9-trimethyl-6H-thieno[3,2-f][1,2,4]triazolo[4,3-a][1,4]diazepin-6-yl)acetate]",1110067D22Rik value_2,7.6991
same,9930013L23Rik value_2,31.3095
same,A430110N23Rik value_2,1.529
same,Acot11 value_2,1.6538
same,Acpl2 value_2,7.205
same,Adam8 value_2,11.9385
same,Adamts12 value_2,17.1447
same,Adcy1 value_2,0.8092
same,Adcy5 value_2,0.9801
same,Adcy7 value_2,3.439
same,Aif1l value_2,1.208
same,Akap5 value_2,1.478
same,Aldh1a2 value_2,19.1605
same,Aldh1l1 value_2,1.536
same,Aldh1l2 value_2,7.698
same,Ankrd55 value_2,7.519
same,Apbb1ip value_2,18.5518
same,Apbb1 value_2,7.273
same,Arhgef6 value_2,2.025
same,Arhgef25 value_2,25.9937
same,Arl5a value_2,37.4802
same,Arsb value_2,16.7663
same,Avpr1a value_2,1.651
same,B3galnt1 value_2,2.653
same,B4galt2 value_2,15.1944
same,Bag2 value_2,14.4878
same,Bdnf value_2,4.6088
same,Bnip3 value_2,18.6877
same,Boc value_2,14.1708
same,Cacng7 value_2,2.276
same,Casp12 value_2,4
same,Ccbe1 value_2,26.2027
same,Ccnd2 value_2,143.49
same,Ccng1 value_2,163.356
same,Cd276 value_2,5.674
same,Cdh11 value_2,17.4722
same,Celf2 value_2,11.1573
same,Cercam value_2,9.775
same,Chpf value_2,51.0364
same,Chst12 value_2,44.2429
same,Chsy3 value_2,4.1726
same,Cnrip1 value_2,15.1406
same,Col1a1 value_2,830.694
same,Col4a5 value_2,36.069
same,Col12a1 value_2,37.8465
same,Col16a1 value_2,5.064
same,Copz2 value_2,47.0355
same,Cplx2 value_2,3.358
same,Crispld2 value_2,4.912
same,Crlf1 value_2,26.6612
same,Csrp2 value_2,137.115
same,Cul7 value_2,19.1665
same,Cxx1c value_2,13.5431
same,D4Bwg0951e value_2,30.19
same,Ddah1 value_2,10.4898
same,Dhrs1 value_2,30.0462
same,Dmpk value_2,26.4788
same,Dnpep value_2,41.0591
same,Dpysl3 value_2,14.2712
same,Dynlrb1 value_2,162.462
same,Dzip1l value_2,10.8578
same,Emp2 value_2,8.903
same,Enpp5 value_2,25.6268
same,Ext1 value_2,80.2965
same,Extl3 value_2,35.6167
same,Fah value_2,1.793
same,Fam19a5 value_2,1.344
same,Fam20a value_2,11.2001
same,Fam38b value_2,3.39
same,Fam110c value_2,13.4372
same,Fam132a value_2,4.331
same,Fap value_2,1.601
same,Fbxw9 value_2,14.3107
same,Fkbp7 value_2,40.2493
same,Fmod value_2,2.369
same,Fndc1 value_2,15.189
same,Fndc4 value_2,1.244
same,Folr1 value_2,1.905
same,Foxc2 value_2,1.453
same,Foxf2 value_2,1.6602
same,Frzb value_2,144.416
same,Fstl3 value_2,14.8692
same,Fzd6 value_2,2.328
same,Gdf6 value_2,25.9944
same,Gm2a value_2,22.5206
same,Gm14420 value_2,13.7546
same,Gmpr value_2,8.026
same,Gpc1 value_2,10.285
same,Gpc4 value_2,94.2819
same,Gpr39 value_2,22.0499
same,Gpr133 value_2,3.842
same,Gpr180 value_2,14.9448
same,Gria4 value_2,2.6
same,Gys1 value_2,11.4841
same,Hk2 value_2,9.851
same,Hoxb2 value_2,33.6747
same,Hrct1 value_2,3.228
same,Hs6st2 value_2,23.4423
same,Hspb1 value_2,104.396
same,Hspg2 value_2,105.328
same,Igf2 value_2,3.249
same,Igfbp2 value_2,2.5845
same,Iglon5 value_2,2.148
same,Ikbip value_2,68.3911
same,Itga5 value_2,44.6427
same,Jub value_2,23.4821
same,Kank1 value_2,15.8777
same,Kazald1 value_2,4.522
same,Kcne4 value_2,8.547
same,Kdm5b value_2,17.3352
same,Kif21b value_2,8.145
same,Kif26b value_2,3.17
same,Klhl26 value_2,25.6223
same,Lclat1 value_2,20.6695
same,Lepre1 value_2,61.4792
same,Leprel1 value_2,4.84
same,Leprel2 value_2,31.892
same,Lgals1 value_2,1464.5
same,Lims2 value_2,12.2591
same,Lox13 value_2,12.0376
same,Loxl1 value_2,78.0679
same,Loxl2 value_2,668.398
same,Lrrn2 value_2,1.8093
same,Mageh1 value_2,22.8542
same,Man2b2 value_2,26.9926
same,Mpzl1 value_2,88.2456
same,Mrvi1 value_2,2.602
same,Myh10 value_2,34.498
same,Myh11 value_2,6.328
same,Myl6 value_2,531.936
same,Mylk value_2,62.0714
same,Myo1d value_2,22.5024
same,Myof value_2,42.2087
same,Ncam1 value_2,8.073
same,Ndrg2 value_2,12.6911
same,Nexn value_2,6.343
same,Nid2 value_2,130.153
same,Nts value_2,3.21
same,Numbl value_2,22.4916
same,Obsl1 value_2,3.108
same,P4ha1 value_2,120.896
same,Palld value_2,17.5752
same,Pcsk5 value_2,4.88
same,Pde1a value_2,9.282
same,Pdlim4 value_2,4.7862
same,Pfkfb4 value_2,2.359
same,Phlda3 value_2,132.249
same,Phldb2 value_2,149.373
same,Phyhd1 value_2,3.552
same,Pla2g15 value_2,24.3031
same,Plac8 value_2,104.172
same,Plekhg3 value_2,18.1798
same,Plp2 value_2,16.6661
same,Plscr2 value_2,7.544
same,Plscr4 value_2,8.1813
same,Pmepa1 value_2,29.4329
same,Pmm1 value_2,54.8681
same,Pmp22 value_2,85.9788
same,Podn value_2,1.458
same,Polr3k value_2,22.8928
same,Pon3 value_2,19.5497
same,Popdc2 value_2,4.263
same,Ppapdc1b value_2,13.4067
same,Ppp1r14a value_2,20.201
same,Pppde2 value_2,20.4808
same,Prdx2 value_2,167.804
same,Prickle1 value_2,14.268
same,Prrc1 value_2,19.9334
same,Psrc1 value_2,6.874
same,Pter value_2,1.743
same,Ptpla value_2,12.4632
same,Ptplad2 value_2,8.106
same,Pvrl2 value_2,81.9103
same,Pygl value_2,3.275
same,Rab7l1 value_2,5.901
same,Rab15 value_2,1.498
same,Rab34 value_2,55.2701
same,Rab3d value_2,8.99
same,Rftn2 value_2,1.387
same,Rhobtb3 value_2,13.6471
same,Rnft1 value_2,17.8003
same,Ror1 value_2,6.1328
same,Rprd1a value_2,7.118
same,Runx2 value_2,3.741
same,Ryk value_2,55.3732
same,S100a1 value_2,70.3658
same,Sardh value_2,3.193
same,Sat2 value_2,5.26
same,Sce1 value_2,3.6703
same,Selm value_2,80.5867
same,Sepx1 value_2,93.1036
same,Serpine2 value_2,7.825
same,Serpinh1 value_2,1190.39
same,Setd7 value_2,32.7601
same,Sfrp1 value_2,33.2277
same,Sgce value_2,7.751
same,Sh3gl3 value_2,1.09
same,Sh3kbp1 value_2,10.1373
same,Shisa3 value_2,4.345
same,Skp2 value_2,4.997
same,Slc2a10 value_2,2.062
same,Slc35a2 value_2,23.1121
same,Slc44a2 value_2,59.6308
same,Slit3 value_2,39.3977
same,Snai1 value_2,35.4904
same,Snta1 value_2,25.2902
same,Snx30 value_2,13.1255
same,Sparcl1 value_2,5.629
same,Speg value_2,7.409
same,Spp1 value_2,226.746
same,Srgap3 value_2,1.389
same,Srpx value_2,2.6404
